Tested on: HCT-116
Assay: Cytotoxicity against human HCT116 cells overexpressing GST-Pi assessed as inhibition of cell viability at 10 uM after 48 hrs by MTT assay relative to control
Format: functional
Conditions: HCT-116, 48 h
Work on CC(=O)N1N=C(c2cccc(Oc3cc(O/N=[N+](\[O-])N4CCOCC4)c([N+](=O)[O-])cc3[N+](=O)[O-])c2)CC1c1ccc(C)cc1 (stereo unspecified) yielded an inhibition at 10 µM of 77.8%.

Tested on: MDA-MB-231
Assay: Antiproliferative activity against human MDA-MB-231 cells after 48 hrs by MTT assay relative to control
Format: functional, cell-based
Conditions: MDA-MB-231, 48 h
CC(=O)N1N=C(c2cccc(Oc3cc(O/N=[N+](\[O-])N4CCOCC4)c([N+](=O)[O-])cc3[N+](=O)[O-])c2)CC1c1ccc(C)cc1 (stereo unspecified) showed an IC50 of 3.85 µM.

Tested on: HCT-116
Assay: Antiproliferative activity against human HCT116 cells after 48 hrs by MTT assay relative to control
Format: functional, cell-based
Conditions: HCT-116, 48 h
Compound CC(=O)N1N=C(c2cccc(Oc3cc(O/N=[N+](\[O-])N4CCOCC4)c([N+](=O)[O-])cc3[N+](=O)[O-])c2)CC1c1ccc(C)cc1 (stereo unspecified) has an IC50 of 4.44 µM.

Tested on: A549
Assay: Antiproliferative activity against human A549 cells after 48 hrs by MTT assay relative to control
Format: functional, cell-based
Conditions: A549, 48 h
In the case of CC(=O)N1N=C(c2cccc(Oc3cc(O/N=[N+](\[O-])N4CCOCC4)c([N+](=O)[O-])cc3[N+](=O)[O-])c2)CC1c1ccc(C)cc1 (stereo unspecified), the IC50 is reported as 1.87 µM.

Tested on: U2OS
Assay: Antiproliferative activity against human U2OS cells after 48 hrs by MTT assay relative to control
Format: functional, cell-based
Conditions: not given
For CC(=O)N1N=C(c2cccc(Oc3cc(O/N=[N+](\[O-])N4CCOCC4)c([N+](=O)[O-])cc3[N+](=O)[O-])c2)CC1c1ccc(C)cc1 (stereo unspecified), the IC50 was 3.86 µM.

Tested on: MCF-10A
Assay: Antiproliferative activity against human MCF10A cells after 48 hrs by MTT assay relative to control
Format: cell-based
Conditions: not given
Compound CC(=O)N1N=C(c2cccc(Oc3cc(O/N=[N+](\[O-])N4CCOCC4)c([N+](=O)[O-])cc3[N+](=O)[O-])c2)CC1c1ccc(C)cc1 (stereo unspecified) has an IC50 of 11.9 µM.

Tested on: not listed separately
Assay: Selectivity ratio of IC50 for human MCF10A cells to IC50 for human MDA-MB-231 cells
Format: toxicity
Conditions: MCF10A cells versus MDA-MB-231 cells, read-out: Ratio IC50
CC(=O)N1N=C(c2cccc(Oc3cc(O/N=[N+](\[O-])N4CCOCC4)c([N+](=O)[O-])cc3[N+](=O)[O-])c2)CC1c1ccc(C)cc1 (stereo unspecified) gave a selectivity ratio of 3.1.

Tested on: not listed separately
Assay: Selectivity ratio of IC50 for human HCT116 cells to IC50 for human MDA-MB-231 cells
Format: functional
Conditions: not given
For CC(=O)N1N=C(c2cccc(Oc3cc(O/N=[N+](\[O-])N4CCOCC4)c([N+](=O)[O-])cc3[N+](=O)[O-])c2)CC1c1ccc(C)cc1 (stereo unspecified), the “Ratio IC50” value was 1.1.

Tested on: not listed separately
Assay: Selectivity ratio of IC50 for human A549 cells to IC50 for human MDA-MB-231 cells
Format: functional
Conditions: not given
For CC(=O)N1N=C(c2cccc(Oc3cc(O/N=[N+](\[O-])N4CCOCC4)c([N+](=O)[O-])cc3[N+](=O)[O-])c2)CC1c1ccc(C)cc1 (stereo unspecified), the “Ratio IC50” value was 0.5.

Tested on: not listed separately
Assay: Selectivity ratio of IC50 for human U2OS cells to IC50 for human MDA-MB-231 cells
Format: functional
Conditions: not given
For CC(=O)N1N=C(c2cccc(Oc3cc(O/N=[N+](\[O-])N4CCOCC4)c([N+](=O)[O-])cc3[N+](=O)[O-])c2)CC1c1ccc(C)cc1 (stereo unspecified), the “Ratio IC50” value was 1.

Target: T1, Glutathione S-transferase P (Homo sapiens, UniProt P09211)
T1 sequence (P09211 whole entry): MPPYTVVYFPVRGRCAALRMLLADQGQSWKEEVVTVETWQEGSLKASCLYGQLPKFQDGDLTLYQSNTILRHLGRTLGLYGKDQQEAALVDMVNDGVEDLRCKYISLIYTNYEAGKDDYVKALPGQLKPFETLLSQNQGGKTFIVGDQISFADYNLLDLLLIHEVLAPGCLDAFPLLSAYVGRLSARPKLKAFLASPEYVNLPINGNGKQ
Assay: Prodrug activation in human HCT116 cells assessed as GST-Pi-mediated NO release at 5 uM by nitrate reductase assay
Format: cell-based
Conditions: not given
For CC(=O)N1N=C(c2cccc(Oc3cc(O/N=[N+](\[O-])N4CCOCC4)c([N+](=O)[O-])cc3[N+](=O)[O-])c2)CC1c1ccc(C)cc1 (stereo unspecified), the Drug metabolism was “Dose-dependent effect”.

Species on record: Homo sapiens
Assay: Inhibition of MDR in human MCF7/ADR cells assessed as potentiation of adriamycin-induced antiproliferative activity by measuring fold reduction in adriamycin IC50 at 10 uM after 48 hrs by MTT assay
Format: cell-based
Conditions: not given
CC(=O)N1N=C(c2cccc(Oc3cc(O/N=[N+](\[O-])N4CCOCC4)c([N+](=O)[O-])cc3[N+](=O)[O-])c2)CC1c1ccc(C)cc1 (stereo unspecified) gave a fold change (FC) of 49.7.

Target: T1, Glutathione S-transferase P
Assay: Prodrug activation in human HCT116 cells assessed as GST-Pi-mediated NO release at 5 uM after 24 hrs in presence of NO scavenger carboxy-PTIO by nitrate reductase assay
Format: cell-based
Conditions: not given
With CC(=O)N1N=C(c2cccc(Oc3cc(O/N=[N+](\[O-])N4CCOCC4)c([N+](=O)[O-])cc3[N+](=O)[O-])c2)CC1c1ccc(C)cc1 (stereo unspecified) the Drug metabolism was “Metabolite_Notdetected”.

Target: T1, Glutathione S-transferase P
Assay: Prodrug activation in human HCT116 cells assessed as GST-Pi-mediated NO release at 5 uM after 24 hrs in presence of GST-Pi inhibitor etacrynic acid by nitrate reductase assay
Format: cell-based
Conditions: not given
For CC(=O)N1N=C(c2cccc(Oc3cc(O/N=[N+](\[O-])N4CCOCC4)c([N+](=O)[O-])cc3[N+](=O)[O-])c2)CC1c1ccc(C)cc1 (stereo unspecified), the Drug metabolism was “Metabolite_Notdetected”.

Tested on: not listed separately
Assay: Cytotoxicity against ADR-sensitive human MCF7 cells assessed as inhibition of cell viability at 10 uM after 48 hrs by MTT assay relative to control
Format: cell-based
Conditions: read-out: INH
CC(=O)N1N=C(c2cccc(Oc3cc(O/N=[N+](\[O-])N4CCOCC4)c([N+](=O)[O-])cc3[N+](=O)[O-])c2)CC1c1ccc(C)cc1 (stereo unspecified) gave a cytotoxicity at 48 h, 10 µM of 20.2%.

Tested on: MCF7
Assay: Cytotoxicity against ADR-sensitive human MCF7 cells assessed as inhibition of cell viability after 48 hrs by MTT assay
Format: cell-based
Conditions: MCF7, 48 h
Work on CC(=O)N1N=C(c2cccc(Oc3cc(O/N=[N+](\[O-])N4CCOCC4)c([N+](=O)[O-])cc3[N+](=O)[O-])c2)CC1c1ccc(C)cc1 (stereo unspecified) yielded an IC50 of 21.6 µM.
